Read-outs that look alike come from different tables or passages of the source. One block for each compound: values may come before it.
Key:
Parameters in all cases: species or system Male Sprague-Dawley rats
isolated rat hearts [1] = test: Time to contracture during global ischemia in isolated rat hearts, with isobolographic analysis of the combination; conditions: read-out: EC₅₀ for percentage change in time to contracture
Experimental: (§1) anesthetized using 100 mg/kg sodium pentobarbital (i.p.). They were intubated and then treated with i.v. heparin (1000 U/kg). While mechanically ventilated, hearts were perfused in situ via retrograde cannulation of the aorta. The hearts were then excised and quickly moved to a Langendorff apparatus where they were perfused with Krebs-Henseleit bicarbonate buffer (112 mM sodium chloride, 25 mM sodium bicarbonate, 5 mM potassium chloride, 1.2 mM magnesium sulfate, 1 mM potassium diphosphate, 1.25 mM calcium chloride, 11.5 mM glucose and 2mM pyruvate bubbled with 95% oxygen - 5% carbon dioxide) at a constant perfusion pressure (75 mm Hg). A water-filled latex balloon, attached to a metal cannula, was inserted into the left ventricle and connected to a Statham pressure transducer for measurement of left ventricular pressure. The hearts were allowed to equilibrate for 15 minutes, at which time end diastolic pressure (EDP) was adjusted to 5 mm Hg and the balloon pressure was maintained for the duration of the experiment. Pre-ischemia or pre-drug function, heart rate and coronary flow (extracorporeal electromagnetic flow probe, Carolina Medical Electronics, King, N.C.) were then measured. Cardiac function was determined using double product of heart rate (HR) X left ventricular developed pressure (LVDP) divided by 1000. Cardiac temperature was maintained throughout the experiment by submerging the hearts in a heated chamber filled with 37°C buffer.
All hearts were retreated with vehicle or drug for 10 minutes before the onset of ischemia. All drugs were given only before ischemia. The hearts were subjected to 25 minutes of global ischemia and 30 minutes of reperfusion. At the end of the experiment, EDP and LDH release were measured and used as an index of severity of ischemia.
The effect of the combination of a potassium channel activator and a sulfhydryl containing compound was determined using a technique known as isobolographic analysis (R. J. Tallarida et al, "Minireview-Satistical Analysis of Drug-Drug and Site-Site Interactions with Isobolograms", Life Sciences, 45:947-961, 1989). This technique is commonly used to investigate the interaction between drugs.
Several specific concentration ratios (3:1, 12:1 and 30:1) of cromakalim to zofenopril respectively were tested and the effects of the combination determined. The concentration response curves for cromakalim and zofenopril were expressed as percentage increase in time to contracture from control. Time to contracture was measured as the time during ischemia for end diastolic pressure to increase by 5 mm Hg.
EC₅₀ for percentage change in time to contracture for cromakalim and zofenopril given alone or in the concentration ratios indicated were calculated.

isolated rat hearts [2] = test: Global ischemia and reperfusion in isolated perfused (Langendorff) rat hearts: EDP, LDH release, double product
Experimental: as §1, with “The hearts were then excised and quickly moved to a Langendorff apparatus where they were perfused with Krebs-Henseleit bicarbonate buffer (112 mM sodium chloride, 25 mM sodium bicarbonate, 5 mM potassium chloride, 1.2 mM magnesium sulfate, 1 mM potassium diphosphate, 1.25 mM calcium chloride, 11.5 mM glucose and 2mM pyruvate bubbled with 95% oxygen - 5% carbon dioxide) at a constant perfusion pressure (75 mm Hg).” left out, “buffer. All hearts were retreated with vehicle or drug for 10 minutes before the onset of ischemia. All drugs were given only before ischemia. The hearts were subjected to 25 minutes of global ischemia and 30 minutes of reperfusion. At the end of the experiment, EDP and LDH release were measured and used as an index of severity of ischemia.” for “buffer.”

isolated rat hearts [3] = test: as above; conditions: 100 or 300 µM N-acetylcysteine; 30 minutes into reperfusion following 35 minutes of global ischemia (Fig. 3a, 3b)
[4] = given alone, time during ischemia for EDP to increase by 5 mm Hg
[5] = blocker (1 µM glyburide or 100 µM sodium 5-hydroxydecanoate) given with zofenopril prodrug (Fig. 1a)
[6] = blocker (1 µM glyburide or 100 µM sodium 5-hydroxydecanoate) given with zofenopril prodrug (Fig. 1b)

EC50 (isolated rat hearts [1]; concentration ratio 3:1 cromakalim to zofenopril, cromakalim component): 5.15 µM | EC50 (isolated rat hearts [1]; concentration ratio 12:1 cromakalim to zofenopril, cromakalim component): 5.96 µM | EC50 (isolated rat hearts [1]; concentration ratio 30:1 cromakalim to zofenopril, cromakalim component): 9.3 µM | EC50 (isolated rat hearts [1]; [4]): 39.7 µM
Structure (SMILES): CC1(C)Oc2ccc(C#N)cc2C(N2CCCC2=O)C1O (racemic) [Cromakalim, (±)-6-cyano-3,4-dihydro-2,2-dimethyl-trans-4-(2-oxo-1-pyrrolidyl)-2H-benzo[6]-pyran-3-ol]

Structure (SMILES): COc1ccc(Cl)cc1C(=O)NCCc1ccc(S(=O)(=O)NC(=O)NC2CCCCC2)cc1 [Glyburide]
reversal of the cardioprotective effect of zofenopril-SH (isolated rat hearts [2]; 1 µM glyburide with 400 µM zofenopril-SH (Fig. 2a, 2b)): reverses the cardioprotective effect | reversal of the protective effect of N-acetylcysteine (isolated rat hearts [2]; 1 µM glyburide with N-acetylcysteine (Fig. 3a, 3b)): reversed | end diastolic pressure (EDP) (isolated rat hearts [2]; [5]): increase | cumulative LDH release (isolated rat hearts [2]; [6]): increase | reversal of the effects of penicillamine on double product and LDH release (isolated rat hearts [2]; glyburide with penicillamine (Fig. 4a, 4b)): partially reversed

Structure (SMILES): CC(=O)N[C@@H](CS)C(=O)O [N-acetyl-cysteine, N-acetylcysteine]
protection of ischemic cardiac tissue (EDP and cumulative LDH release) (isolated rat hearts [3]): protected ischemic cardiac tissue

Structure (SMILES): CC(C)(S)[C@@H](N)C(=O)O [Penicillamine]
protection of cardiac tissue (isolated rat hearts [2]; penicillamine (Fig. 4a, 4b)): protects cardiac tissue | LDH release (isolated rat hearts [2]; penicillamine (Fig. 4b)): significantly reduced | reperfusion double product (isolated rat hearts [2]; penicillamine, HR x LVDP divided by 1000 (Fig. 4a)): significantly improved

EC50 (isolated rat hearts [1]; concentration ratio 3:1 cromakalim to zofenopril, zofenopril component): 0.128 µM | EC50 (isolated rat hearts [1]; concentration ratio 12:1 cromakalim to zofenopril, zofenopril component): 0.48 µM | EC50 (isolated rat hearts [1]; concentration ratio 30:1 cromakalim to zofenopril, zofenopril component): 0.29 µM | EC50 (isolated rat hearts [1]; [4]): 75 µM
Structure (SMILES): C[C@H](CSC(=O)c1ccccc1)C(=O)N1C[C@@H](Sc2ccccc2)C[C@H]1C(=O)O [Zofenopril]
end diastolic pressure (EDP) (isolated rat hearts [2]; 100 µM zofenopril, 30 minutes into reperfusion following 25 minutes of global ischemia (Fig. 1a)): significantly reduced | cumulative LDH release (isolated rat hearts [2]; 100 µM zofenopril, 30 minutes into reperfusion following 25 minutes of global ischemia (Fig. 1b)): significantly reduced

Structure (SMILES): C[C@H](CS)C(=O)N1C[C@@H](Sc2ccccc2)C[C@H]1C(=O)O [free-SH form of zofenopril]
cardioprotective effect (EDP and cumulative LDH release) (isolated rat hearts [2]; 400 µM zofenopril-SH, 30 minutes into reperfusion following 25 minutes of global ischemia (Fig. 2a, 2b)): cardioprotective effect

Structure (SMILES): CCCCCC(O)CCCC(=O)[O-].[Na+] (stereo not shown) [sodium-5-hydroxy-decanoate, sodium 5-hydroxydecanoate]
end diastolic pressure (EDP) (isolated rat hearts [2]; [5]): increase | cumulative LDH release (isolated rat hearts [2]; [6]): increase

Reference: patent EP0555681A1, “Use of a combination of potassium channel activators and sulfhydryl containing compounds for the manufacture of a medicament for the treatment of ischemia and myocarolial infarct” (E.R. SQUIBB & SONS, INC., priority 1992, dated 1993)
